We go through 5 compounds from patent US12473298B2, “Amide compounds, preparation method therefor, and use thereof in the medical field” (Shanghai Synergy Pharmaceutical Sciences Co., Ltd., priority 2019, dated 2025).

Read-outs that look alike come from different tables or passages of the source.

Data set [1] concerns human diffuse large cell lymphoma B lymphocytes (Pfeiffer cell). Briefly: Pfeiffer cell proliferation, Calcein AM staining. It is filed as cell-based. The note with it: Homo sapiens, Pfeiffer; data of 14th day; read-out: Pfeiffer Proliferation IC50 Nanomoles per Liter.
From the text: The diffuse large cell lymphoma B lymphocytes (Pfeiffer cells) were collected and counted when growing well.
For another data set, the target named is Mutant type EZH2(Y641N) (Homo sapiens (Human), UniProt Q15910, Y641N). Briefly: AlphaLISA, mutant type PRC2 complex EZH2(Y641N). It is filed as biochemical. The settings on record: read-out: Mutant type EZH2(Y641N) IC50 Nanomoles per Liter. For orientation: In Alpha technology, singlet oxygen from a donor bead excites a nearby acceptor bead.
Data set [2] concerns human diffuse large B-cell lymphoma cells (Karpas 422 cell). Briefly: Karpas 422 cell proliferation, Calcein AM staining. It is filed as cell-based. The settings on record: Homo sapiens, KARPAS-422; data of 14th day; read-out: Karpas422 Proliferation IC50 Nanomoles per Liter.
For a further data set, the target named is wild-type EZH2 (Homo sapiens (Human), UniProt Q15910). Briefly: radiometric assay, activity to wild-type EZH2 of PRC2. The note with it: read-out: Wild-type EZH2 IC50 Nanomoles per Liter.
Data set [3] can be described thus: Pharmacokinetic experiment in rats. It is filed as in vivo, SD rats. As to the method: A certain amount of compound was weighted and dissolved in 0.1% Tween under vortex and ultrasound, and 0.5% carboxymethyl cellulose sodium (CMC-NA) solution was added to form a uniform solution.
Another data set concerns the target Mutant type EZH2(Y641F) (Homo sapiens (Human), UniProt Q15910, Y641F). Briefly: AlphaLISA, mutant type PRC2 complex EZH2(Y641F). It is filed as biochemical. The note with it: read-out: Mutant type EZH2(Y641F) IC50 Nanomoles per Liter.
The next data set concerns the target Mutant type EZH2(A677G) (Homo sapiens (Human), UniProt Q15910, A677G). The data set can be described thus: AlphaLISA, mutant type PRC2 complex EZH2(A677G). It is filed as biochemical. The note with it: read-out: Mutant type EZH2(A677G) IC59 Nanomoles per Liter.
Setting [4] is: male, SD, rat, in vivo, iv, 4 mg/kg.
The mark [5] stands for this setting: male, SD, rat, in vivo, po, 20 mg/kg.
[6] abbreviates: male, SD, rat, plasma, rats, Intravenous-Dose 4 mg/kg, read-out: Area Curve (AUC, ng/mL · h).
Where [7] appears, read: male, SD, rat, plasma; rats, Intravenous-Dose 4 mg/kg; read-out: Half life T1/2, h) (converted).
The mark [8] stands for this setting: male, SD, rat, plasma, rats, Oral-Dose 20 mg/kg, read-out: Area Curve (AUC, ng/mL · h).
Where [9] appears, read: male, SD, rat, plasma, rats, Oral-Dose 20 mg/kg, read-out: Blood Drug level (Cmax, ng/mL).
Where [10] appears, read: male, SD, rat, plasma, rats, oral 20 mg/kg vs intravenous 4 mg/kg, read-out: Bioavailability (P %).

Mutant type EZH2(A677G), sequence (Q15910 whole entry A677G): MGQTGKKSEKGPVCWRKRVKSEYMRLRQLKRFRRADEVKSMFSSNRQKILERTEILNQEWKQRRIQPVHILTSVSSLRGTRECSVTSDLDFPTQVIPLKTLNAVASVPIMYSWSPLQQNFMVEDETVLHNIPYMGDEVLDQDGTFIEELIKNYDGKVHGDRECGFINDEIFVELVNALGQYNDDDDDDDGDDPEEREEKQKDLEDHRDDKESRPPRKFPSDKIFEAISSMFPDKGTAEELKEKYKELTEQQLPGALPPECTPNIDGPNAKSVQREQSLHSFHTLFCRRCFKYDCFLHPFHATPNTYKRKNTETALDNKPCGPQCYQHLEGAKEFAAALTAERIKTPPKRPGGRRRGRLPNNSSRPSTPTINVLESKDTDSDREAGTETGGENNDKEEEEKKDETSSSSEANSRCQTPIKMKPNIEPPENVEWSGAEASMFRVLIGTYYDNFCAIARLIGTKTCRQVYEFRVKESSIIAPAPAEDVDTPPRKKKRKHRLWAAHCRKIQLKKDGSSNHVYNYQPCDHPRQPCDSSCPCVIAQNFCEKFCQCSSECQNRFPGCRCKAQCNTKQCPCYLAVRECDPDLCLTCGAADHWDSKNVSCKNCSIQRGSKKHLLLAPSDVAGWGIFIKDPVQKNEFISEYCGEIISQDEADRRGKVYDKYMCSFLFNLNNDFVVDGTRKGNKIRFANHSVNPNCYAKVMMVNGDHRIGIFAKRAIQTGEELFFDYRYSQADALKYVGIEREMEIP
Mutant type EZH2(A677G), sequence (O75530 whole entry partner): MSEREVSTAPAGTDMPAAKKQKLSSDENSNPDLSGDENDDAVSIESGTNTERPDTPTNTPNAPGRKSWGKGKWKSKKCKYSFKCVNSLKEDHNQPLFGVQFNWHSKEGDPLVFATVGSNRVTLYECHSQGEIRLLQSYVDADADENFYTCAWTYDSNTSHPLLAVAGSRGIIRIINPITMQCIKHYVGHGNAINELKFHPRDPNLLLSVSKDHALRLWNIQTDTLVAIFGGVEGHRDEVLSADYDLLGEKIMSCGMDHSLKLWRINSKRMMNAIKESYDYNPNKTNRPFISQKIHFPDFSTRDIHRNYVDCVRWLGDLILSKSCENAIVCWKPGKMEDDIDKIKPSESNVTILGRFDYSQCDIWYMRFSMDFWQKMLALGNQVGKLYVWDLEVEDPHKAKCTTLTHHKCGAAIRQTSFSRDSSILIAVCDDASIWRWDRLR
Mutant type EZH2(A677G), sequence (Q15022 whole entry partner): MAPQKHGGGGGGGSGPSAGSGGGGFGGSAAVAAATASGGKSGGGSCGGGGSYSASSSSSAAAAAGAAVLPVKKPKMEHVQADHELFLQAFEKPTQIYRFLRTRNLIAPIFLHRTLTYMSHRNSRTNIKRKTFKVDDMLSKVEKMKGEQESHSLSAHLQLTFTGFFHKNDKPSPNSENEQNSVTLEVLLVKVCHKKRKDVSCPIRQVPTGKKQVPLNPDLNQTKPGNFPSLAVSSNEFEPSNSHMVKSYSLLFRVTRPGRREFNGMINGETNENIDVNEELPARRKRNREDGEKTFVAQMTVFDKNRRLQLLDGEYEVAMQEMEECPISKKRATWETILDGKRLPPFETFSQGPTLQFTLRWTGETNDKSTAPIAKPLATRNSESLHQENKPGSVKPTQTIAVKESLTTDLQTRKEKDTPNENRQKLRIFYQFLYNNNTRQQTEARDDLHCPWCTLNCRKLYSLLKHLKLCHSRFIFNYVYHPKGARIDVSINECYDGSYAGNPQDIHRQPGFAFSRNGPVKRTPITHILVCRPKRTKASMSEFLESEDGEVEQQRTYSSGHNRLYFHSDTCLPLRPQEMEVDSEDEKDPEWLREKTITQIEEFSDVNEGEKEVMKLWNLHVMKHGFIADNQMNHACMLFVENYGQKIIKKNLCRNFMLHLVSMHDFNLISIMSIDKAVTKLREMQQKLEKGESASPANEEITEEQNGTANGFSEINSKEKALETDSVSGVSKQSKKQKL
Mutant type EZH2(A677G), sequence (Q09028 whole entry partner): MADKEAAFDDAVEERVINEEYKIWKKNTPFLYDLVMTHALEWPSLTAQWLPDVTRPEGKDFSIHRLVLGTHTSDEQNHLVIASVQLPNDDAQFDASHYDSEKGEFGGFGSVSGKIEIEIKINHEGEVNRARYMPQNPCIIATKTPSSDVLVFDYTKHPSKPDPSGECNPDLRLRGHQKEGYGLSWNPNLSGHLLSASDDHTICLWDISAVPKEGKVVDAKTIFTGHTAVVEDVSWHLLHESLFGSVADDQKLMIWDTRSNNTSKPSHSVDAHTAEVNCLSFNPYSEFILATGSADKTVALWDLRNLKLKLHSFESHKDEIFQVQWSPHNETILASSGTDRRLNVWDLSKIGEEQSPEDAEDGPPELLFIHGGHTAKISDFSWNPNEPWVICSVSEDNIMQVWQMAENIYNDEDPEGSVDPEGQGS
Mutant type EZH2(A677G), sequence (Q6ZN18 whole entry partner): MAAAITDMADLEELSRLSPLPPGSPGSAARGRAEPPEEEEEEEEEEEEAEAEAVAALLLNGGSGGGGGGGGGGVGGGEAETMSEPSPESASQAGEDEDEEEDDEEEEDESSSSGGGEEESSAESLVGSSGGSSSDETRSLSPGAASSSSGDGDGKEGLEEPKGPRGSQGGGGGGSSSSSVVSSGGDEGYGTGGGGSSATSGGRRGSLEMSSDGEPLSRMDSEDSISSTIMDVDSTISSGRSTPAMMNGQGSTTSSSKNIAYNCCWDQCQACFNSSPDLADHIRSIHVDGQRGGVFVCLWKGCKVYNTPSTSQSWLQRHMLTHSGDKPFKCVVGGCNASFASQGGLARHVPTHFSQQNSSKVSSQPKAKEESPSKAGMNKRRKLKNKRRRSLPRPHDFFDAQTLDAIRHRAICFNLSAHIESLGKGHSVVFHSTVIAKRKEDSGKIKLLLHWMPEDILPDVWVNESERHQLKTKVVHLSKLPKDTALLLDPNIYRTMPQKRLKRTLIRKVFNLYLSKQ
Mutant type EZH2(Y641N), sequence (Q15910 whole entry Y641N): as the sequence (Q15910 whole entry A677G) above, with Y641N, G677A counted along it
Mutant type EZH2(Y641N), sequence (O75530 whole entry partner): as the sequence (O75530 whole entry partner) above
Mutant type EZH2(Y641N), sequence (Q15022 whole entry partner): as the sequence (Q15022 whole entry partner) above
Mutant type EZH2(Y641N), sequence (Q09028 whole entry partner): as the sequence (Q09028 whole entry partner) above
Mutant type EZH2(Y641N), sequence (Q6ZN18 whole entry partner): as the sequence (Q6ZN18 whole entry partner) above
Mutant type EZH2(Y641F), sequence (Q15910 whole entry Y641F): as the sequence (Q15910 whole entry A677G) above, with Y641F, G677A counted along it
Mutant type EZH2(Y641F), sequence (O75530 whole entry partner): as the sequence (O75530 whole entry partner) above
Mutant type EZH2(Y641F), sequence (Q15022 whole entry partner): as the sequence (Q15022 whole entry partner) above
Mutant type EZH2(Y641F), sequence (Q09028 whole entry partner): as the sequence (Q09028 whole entry partner) above
Mutant type EZH2(Y641F), sequence (Q6ZN18 whole entry partner): as the sequence (Q6ZN18 whole entry partner) above
wild-type EZH2, sequence (Q15910 whole entry): as the sequence (Q15910 whole entry A677G) above, with G677A counted along it
wild-type EZH2, sequence (O75530 whole entry partner): as the sequence (O75530 whole entry partner) above
wild-type EZH2, sequence (Q15022 whole entry partner): as the sequence (Q15022 whole entry partner) above
Method for wild-type EZH2: 25 μL of reaction solution was transferred to a scintillation plate, which was incubated at room temperature for 1 hour (h) and washed with deionized water and 0.1% Tween 20 for three times. A PerkinElmer liquid scintillation/luminescence counter was used to read the value, and GraphPad Prism 5 was used to calculate the median inhibitory concentration (IC50) of the compounds.

What is called bioavailability is dose-corrected exposure relative to a reference, in per cent. Turning to `CCN(c1cc(-c2ccc3c(c2)C=CC32CCN(C(C)C)CC2)cc(C(=O)NCc2c(OC)cc(C)[nH]c2=O)c1C)C1CCOCC1` [Example 37, 3-(ethyl(tetrahydro-2H-pyran-4-yl)amino)-5-(1′-isopropylspiro[indene-1,4′-piperidine]-5-yl)-N-((4-methoxy-6-methyl-2-carbonyl-1,2-dihydropyridin-3-yl)methyl)-2-methylbenzamide], the IC50 in data set [1] is 0.87 nM; on Mutant type EZH2(Y641N), 0.23 nM; in data set [2], 0.95 nM; at wild-type EZH2, 0.6 nM; at Mutant type EZH2(Y641F), 0.54 nM. Further, the AUC in data set [3] (setting [4]) amounted to 903 ng·h/mL; in data set [3] (setting [5]), 1540 ng·h/mL. This compound also showed a half-life in data set [3] (setting [4]) of 1.25 h. Moreover, the Cmax in data set [3] (setting [5]) stood at 444 ng/mL. The same compound returned a bioavailability in data set [3] (setting [5]) of 34.1%.
As to `CCN(c1cc(-c2ccc3c(c2)NCC32CCOCC2)cc(C(=O)NCc2c(C)cc(C)[nH]c2=O)c1C)C1CCNCC1` [Example 6, N-((4,6-dimethyl-2-oxo-1,2-dihydropyridin-3-yl)methyl)-3-(ethyl(piperidin-4-yl)amino)-2-methyl-5-(2′,3′,5′,6′-tetrahydrospiro[dihydroindole-3,4′-pyran]-6-yl)benzamide], the IC50 is 1.14 nM in data set [1]; 0.07 nM at Mutant type EZH2(Y641N); 0.2 nM on Mutant type EZH2(A677G); 1.94 nM in data set [2]; 0.2 nM at Mutant type EZH2(Y641F). The AUC came to 936 ng·h/mL in data set [3] (setting [6]) and 1190 ng·h/mL in data set [3] (setting [8]). In data set [3] (setting [7]), the half-life was 1.26 h. Also, in data set [3] (setting [9]), the Cmax came to 494 ng/mL. Also, the bioavailability in data set [3] (setting [10]) came out at 25.5%.
Consider `CCN(c1cc(-c2ccc3c(c2)CCC32CCOCC2)cc(C(=O)NCc2c(OC)cc(C)[nH]c2=O)c1C)C1CCOCC1` [Example 113, 3-(Ethyl(tetrahydro-2H-pyran-4-yl)amino)-5-(2,2′,3,3′,5′,6′-hexahydrospiro[indene-1,4′-pyran]-5-yl)-N-((4-methoxy-6-methyl-2-oxo-1,2-dihydropyridin-3-yl)methyl)-2-methylbenzamide], for which the IC50 in data set [1] is 1.67 nM; at Mutant type EZH2(Y641N), 0.27 nM; at Mutant type EZH2(A677G), 0.38 nM; in data set [2], 2.5 nM; on Mutant type EZH2(Y641F), 0.54 nM.
The matching figures for `CCN(c1cc(-c2ccc3c(c2)NC(=O)C32CCOCC2)cc(C(=O)NCc2c(C)cc(C)[nH]c2=O)c1C)C1CC(C)OC(C)C1` (stereo not shown) [Example 104, N-((4,6-Dimethyl-2-oxo-1,2-dihydropyridin-3-yl)methyl)-3-(ethyl(2,6-dimethyltetrahydro-2H-pyran-4-yl)amino)-2-methyl-5-(2-oxo-2′,3′,5′,6′-tetrahydrospiro[dihydroindole-3,4′-pyran]-6-yl)benzamide]: 1.73 nM, 0.19 nM, 0.27 nM, 1.82 nM and 0.31 nM.
`CCN(c1cc(-c2cc3c(cc2F)CCC32CCOCC2)cc(C(=O)NCc2c(C)cc(C)[nH]c2=O)c1C)C1CCOCC1` [Example 24, N-((4,6-dimethyl-2-carbonyl-1,2-dihydropyridin-3-yl)methyl)-3-(ethyl(tetrahydro-2H-pyran-4-yl)amino)-5-(5-fluoro-2,2′,3,3′,5′,6′-hexahydrospiro[indene-1,4′-pyran]-6-yl)-2-methylbenzamide]: the IC50 in data set [1] was 0.1 nM; on Mutant type EZH2(Y641N), 0.23 nM; at Mutant type EZH2(A677G) it was 0.41 nM; in data set [2], 0.41 nM; on Mutant type EZH2(Y641F), 0.56 nM. Besides, the AUC in data set [3] (setting [6]) was found to be 943 ng·h/mL; in data set [3] (setting [8]), 1350 ng·h/mL. The half-life in data set [3] (setting [7]) was 1.08 h. Moreover, the Cmax in data set [3] (setting [9]) stood at 479 ng/mL. Also, the bioavailability in data set [3] (setting [10]) came out at 28.7%.
